Key:
hippocampal cells = assay: Survival of hippocampal cells after 7 days with activators (PFF model); format: cell-based, mouse; details: 0.5 and 2.5 μM, PFF-treated
From the text: Encouraged by the results received, we tested the ability of the modulator-CPP constructs to increase α-synuclein degradation in a cell model using primary mouse neuronal cells. The presence of Lewy-like neurites and Lewy-like bodies containing aggregated α-synuclein with phosphorylated serine 129 (pS129-αsyn) is a characteristic feature of the brains of people with Parkinson’s disease. To mimic these aggregations, we introduced a solution of preformed fibrils (PFFs) to the media of neuronal cells, which led to the induction of α-synuclein phosphorylation and its aggregation in neurons isolated from mouse embryos. PFFs are purified, prion-like fibrils of α-synuclein that are produced by expressing a recombinant monomeric protein in bacteria. Seven days after PFFs are introduced to the cells, large aggregates are visible in the cell soma, often next to the cell nucleus. We added the PFF solution to the hippocampal cells, and after an hour of incubation, we introduced solutions of the activator. After 7 days, we immunostained neuronal cells using a monoclonal antibody against the NeuN protein, which is commonly used in neuronal differentiation studies to assess their functional status. Additionally, we stained the nuclei of all incubated cells with DAPI. […]

[1] = molecular target: T1, human 20S proteasome, ChT-L peptidase; assay: Chymotrypsin-like (ChT-L) activity of h20S probed with Suc-LLVY-AMC; format: biochemical
T1 construct: human proteasome isolated from erythrocytes; from tissue; host or cells: human erythrocytes
Method: To assess the influence of substitutions increasing proteolytic stability on the modulators’ capacity to stimulate chymotrypsin-like, trypsin-like, and caspase-like activity of h20S, we used classic fluorogenic substrates: Suc-LLVY-AMC, Boc-LRR-AMC, and Z-LLE-AMC, respectively.
The effect of all synthesized peptidomimetics on the catalytic activity of the proteasome was tested using a human proteasome isolated from erythrocytes. Suc-LLVY-AMC, Boc-LRR-AMC, and Z-LLE-AMC fluorogenic substrates (Bachem, Bubendorf, Switzerland) were used for assessment of the chymotrypsin-, trypsin-, and caspase-like activities, respectively. A homemade FRET-type substrate Dabcyl-EDANS (Lys(Dabcyl)-[…]EDANS)-Gly)[26] was used as an additional probe. Stock solutions of the substrates and tested peptidomimetics were prepared in dimethyl sulfoxide (DMSO), ensuring that the final concentration of DMSO in all samples remained consistent at 2%. The small fluorogenic substrates were used at a final concentration of 100 μM, while Dabcyl-EDANS was prepared at a final concentration of 15 μM. […] Activity tests were conducted in 96-well plates using 50 mM Tris/HCl, pH 8.0, as an assay buffer. The final concentration of h20S proteasome was adjusted to 0.002 mg/mL (2.8 nM). The fluorescence of released aminomethylcoumarin (AMC) was monitored at 460 nm (λex was 380 nm), while the hydrolysis of Dabcyl-EDANS was detected by measuring emission at 493 nm (λex was set at 335 nm). Fluorescence measurements were taken continuously every 2 min over a 60 min period at 37 °C using a Tecan Infinite M200Pro spectrofluorometer (Tecan Trading AG, Männedorf, Switzerland). All activity assays were performed in at least three independent replicates. The relative activity was calculated in relation to the catalytic activity of the vehicle (DMSO)-treated latent proteasome, which was regarded as 100%. Statistical analysis was performed using the one-way ANOVA followed by Tukey’s post-hoc test. P-value <0.05 was considered statistically significant.

[2] = system: T2, proteasome in HEK293T cell lysate; assay: Proteasome activity in the HEK293T cell lysate, Suc-LLVY-AMC; format: biochemical, human
T2 construct: endogenous in cells; host or cells: HEK293T cell lysate
Method: To assess whether activators are able to stimulate the proteasome in the cellular environment, we conducted experiments using the HEK293T cell lysate. […] The experiment was carried out as it was described.[25] Briefly, HEK293T cells were lysed, and the lysate was treated with the modulators at a concentration of 1, 2.5, 5, 10, and 25 μM, only in the case of modulators with the TAT or 6R sequence attached were the concentrations 0.5, 1, 2.5, 5, and 10 μM. The proteasome activity was probed using Suc-LLVY-AMC substrate. One μM bortezomib was used as a negative control. All experiments were performed in at least three independent replicates. One-way ANOVA with Tukey’s post-hoc test was used to determine statistical significance.

With `C[C@@H](O)[C@H](NC(=O)[C@H](Cc1ccccc1)NC(=O)[C@H](Cc1ccc(O)cc1)NC(=O)CN(CCCCN)C(=O)[C@H](CCCNC(=N)N)NC(=O)[C@H](CCCNC(=N)N)NC(=O)[C@H](CCCNC(=N)N)NC(=O)[C@H](CCC(N)=O)NC(=O)[C@H](CCCNC(=N)N)NC(=O)[C@H](CCCNC(=N)N)NC(=O)[C@H](CCCCN)NC(=O)[C@H](CCCCN)NC(=O)[C@@H](N)CCCNC(=N)N)C(=O)NCC(=O)N[C@@H](CO)C(=O)N[C@@H](CCCCN)C(=O)N[C@@H](CC(=O)O)C(=O)N[C@@H](Cc1c[nH]c2ccccc12)C(=O)N[C@@H](CCCNC(=N)N)C(=O)N[C@@H](CO)C(=O)N[C@@H](Cc1ccc(O)cc1)C(=O)N[C@@H](Cc1ccc(O)cc1)C(=O)N[C@@H](CO)C(=O)O` [1f] the “cytotoxicity to hippocampal cells” value (hippocampal cells) was “did not show cytotoxicity to hippocampal cells”, the EC50 ([1]; Suc-LLVY-AMC, n = 6, EC50 = concentration causing 50% growth of activity vs vehicle control) was 540 ± 100 nM and the “stimulation of proteasome activity” value ([1]; as summed up in Conclusions, substrate not named there) was “approximately 17 times”. The “stimulation of the ChT-L peptidase” value ([1]; at 1 μM concentration, Suc-LLVY-AMC) was “approximately 16 fold”, the “activation of the proteasome in HEK293T cell lysate” value ([2]; 5 μM) was “approximately 4 fold” and the “efficacy in HEK293T cell lysate” value ([2]; compared with 1a) was “higher efficacy than their parent compound 1a”.

From article PMC12035797, “Peptidomimetics Activating the Proteasome: A New Perspective for Parkinson’s Treatment” (Journal of Medicinal Chemistry, 2025)
